In publication PMC11898565, “Perturbation of Pseudomonas aeruginosa peptidoglycan recycling by anti-folates and design of a dual-action inhibitor” (mBio, 2025):
pIC50: −log10 of the molar value.

Key:
NDM-1 = target: T1, NDM-1 (Klebsiella pneumoniae, UniProt C7C422); assay: in vitro meropenem hydrolysis assay ([…] nm), […] enzyme, […] ZnSO4; assay type: biochemical
T1 construct: gene blaNDM-1

VIM-2 = target: T2, VIM-2 (Pseudomonas aeruginosa, UniProt Q9K2N0); assay: as above; assay type: biochemical
T2 construct: gene blaVIM-2

T1 sequence (C7C422 29-270 limits assumed): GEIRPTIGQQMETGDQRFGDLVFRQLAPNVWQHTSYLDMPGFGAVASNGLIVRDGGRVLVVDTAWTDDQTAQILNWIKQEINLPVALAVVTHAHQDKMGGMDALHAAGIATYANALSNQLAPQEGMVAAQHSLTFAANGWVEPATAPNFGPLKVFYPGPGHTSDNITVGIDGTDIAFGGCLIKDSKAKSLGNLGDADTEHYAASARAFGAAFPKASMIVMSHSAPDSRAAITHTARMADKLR

Nc1ccc(S(=O)(=O)Nc2scnc2C(=O)O)cc1 [MLLB-2201]
pIC50 (NDM-1): 5.74 | pIC50 (VIM-2): 4.84
